Laboratory results published in patent US6403112B2, “Ectoin and ectoin derivatives as moisturizers in cosmetics” (Merck Patent Gesellschaft mit beschrankter, priority 1993, dated 2002).

Test: Water absorption capacity at 65% relative atmospheric humidity
Assay type: physicochemical
Details: relative atmospheric humidity of 65%; 1 g of anhydrous substance kept in sealed chamber until weight is constant
Procedure: A) Water absorption capacity The water absorption capacity of the compound of Example 1 is determined at a relative atmospheric humidity of 65%. The control substances used are in each case glycerol and propylene glycol. In each case 1 g of the anhydrous substance is kept in a sealed chamber until the weight is constant. The water absorption capacity is calculated as follows: [formula] Ectoin has a water absorption of 25% and, in comparison with glycerol or propylene glycol (60 and 45%, respectively) a less pronounced hygroscopic behavior. However, with regard to its use as a moisturizer, the dehydrating effect known from unduly high glycerol concentrations can be ruled out.

**Q.** Which water absorption does the source give for CC1=N[C@H](C(=O)O)CCN1 [Ectoin, (S)-1,4,5,6-tetrahydro-2-methyl-4-pyrimidinecarboxylic acid] here?
**A.** The water absorption was 25%.

**Q.** For OCC(O)CO [glycerol], which water absorption is on record?
**A.** Its water absorption is 60%.

**Q.** With CC(O)CO (stereo not drawn) [propylene glycol] as the compound, how does the water absorption read?
**A.** The water absorption was 45%.
